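48-hour exposure; five concentrations; linearly interpolated endpoints. GI50 is the concentration that inhibits growth by half. TGI denotes the concentration required for complete inhibition of growth.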
How the values were obtained:
Assay in all cases: DTP human tumour cell line panel, 48 h
HCT-116 colon = tested on: HCT-116 colon
HS 578T breast = tested on: HS 578T breast
MDA-MB-231 breast = tested on: MDA-MB-231 breast
MDA-MB-435 = tested on: MDA-MB-435
OVCAR-3 ovarian = tested on: OVCAR-3 ovarian
OVCAR-4 ovarian = tested on: OVCAR-4 ovarian
SK-MEL-28 melanoma = tested on: SK-MEL-28 melanoma
SNB-75 CNS = tested on: SNB-75 CNS
TK-10 renal = tested on: TK-10 renal
UACC-257 melanoma = tested on: UACC-257 melanoma

With `CSc1ccc(/C=C2\C=C(CC(=O)NCc3ccc(C(=O)c4ccccc4)cc3)c3cc(F)ccc32)cc1` the GI50 (HCT-116 colon) was 0.0367 µM, the TGI (HCT-116 colon) was 2.76 µM and the GI50 (HS 578T breast) was 0.0457 µM. It also gave a TGI (HS 578T breast) of 13 µM, a GI50 (MDA-MB-231 breast) of 0.0643 µM and a TGI (MDA-MB-231 breast) of 5.3 µM. For the same compound, the GI50 (MDA-MB-435) was less than 0.0112 µM, the TGI (MDA-MB-435) was 0.0515 µM and the GI50 (OVCAR-3 ovarian) was 0.0245 µM. It also gave a TGI (OVCAR-3 ovarian) of 0.0643 µM, a GI50 (OVCAR-4 ovarian) of 0.127 µM and a TGI (OVCAR-4 ovarian) of 20.2 µM. For the same compound, the GI50 (SK-MEL-28 melanoma) was 0.0688 µM, the TGI (SK-MEL-28 melanoma) was 19.8 µM and the GI50 (SNB-75 CNS) was 0.0433 µM. The TGI (SNB-75 CNS) was 6.25 µM, the GI50 (TK-10 renal) was 0.329 µM and the TGI (TK-10 renal) was 6.93 µM. The GI50 (UACC-257 melanoma) was 0.572 µM and the TGI (UACC-257 melanoma) was greater than 100 µM.
In the case of `CCOc1c(Cl)cc(CNC(C)C(O)c2ccccc2)cc1OC` (stereo not given), the GI50 (HCT-116 colon) is reported as 19.2 µM, the TGI (HCT-116 colon) is reported as 43.1 µM and the GI50 (HS 578T breast) is reported as 23.5 µM. For the same compound, the TGI (HS 578T breast) was 93 µM, the GI50 (MDA-MB-231 breast) was 15.6 µM and the TGI (MDA-MB-231 breast) was 54.7 µM. It also gave a GI50 (MDA-MB-435) of 16.2 µM, a TGI (MDA-MB-435) of 32.3 µM and a GI50 (OVCAR-3 ovarian) of 40.1 µM. For the same compound, the TGI (OVCAR-3 ovarian) was greater than 100 µM, the GI50 (OVCAR-4 ovarian) was 21.6 µM and the TGI (OVCAR-4 ovarian) was 87.4 µM. The GI50 (SK-MEL-28 melanoma) was 15.3 µM, the TGI (SK-MEL-28 melanoma) was 30.8 µM and the GI50 (SNB-75 CNS) was 12.7 µM. It also gave a TGI (SNB-75 CNS) of 46.9 µM, a GI50 (TK-10 renal) of 31.7 µM and a TGI (TK-10 renal) greater than 100 µM. The GI50 (UACC-257 melanoma) was 19.1 µM and the TGI (UACC-257 melanoma) was 43.1 µM.
For `CC(=O)OCC=C(CCl)CCC(Br)C(C)(C)Br` (mixture of isomers), the TGI (HCT-116 colon) was greater than 10 µM, the TGI (HS 578T breast) was greater than 10 µM and the TGI (MDA-MB-231 breast) was greater than 10 µM. It also gave a TGI (MDA-MB-435) greater than 10 µM, a TGI (OVCAR-3 ovarian) greater than 10 µM and a TGI (OVCAR-4 ovarian) greater than 10 µM. The TGI (SK-MEL-28 melanoma) was greater than 10 µM, the TGI (SNB-75 CNS) was greater than 10 µM and the TGI (TK-10 renal) was greater than 10 µM. For the same compound, the TGI (UACC-257 melanoma) was greater than 10 µM.
In the case of `O=C1CCCN1CC#CCN1CCCC1`, the GI50 (HCT-116 colon) is reported as greater than 100 µM, the TGI (HCT-116 colon) is reported as greater than 100 µM and the GI50 (HS 578T breast) is reported as greater than 100 µM. It also gave a TGI (HS 578T breast) greater than 100 µM, a GI50 (MDA-MB-231 breast) greater than 100 µM and a TGI (MDA-MB-231 breast) greater than 100 µM. It also gave a GI50 (MDA-MB-435) greater than 100 µM, a TGI (MDA-MB-435) greater than 100 µM and a GI50 (OVCAR-3 ovarian) greater than 100 µM. For the same compound, the TGI (OVCAR-3 ovarian) was greater than 100 µM, the GI50 (OVCAR-4 ovarian) was greater than 100 µM and the TGI (OVCAR-4 ovarian) was greater than 100 µM. It also gave a GI50 (SK-MEL-28 melanoma) greater than 100 µM, a TGI (SK-MEL-28 melanoma) greater than 100 µM and a GI50 (SNB-75 CNS) greater than 100 µM. It also gave a TGI (SNB-75 CNS) greater than 100 µM, a GI50 (TK-10 renal) greater than 100 µM and a TGI (TK-10 renal) greater than 100 µM. It also gave a GI50 (UACC-257 melanoma) greater than 100 µM and a TGI (UACC-257 melanoma) greater than 100 µM.
With `c1nnc(NCNc2nncs2)s1` the TGI (HCT-116 colon) was greater than 100 µM, the TGI (HS 578T breast) was greater than 100 µM and the TGI (MDA-MB-231 breast) was greater than 100 µM. The TGI (MDA-MB-435) was greater than 100 µM, the TGI (OVCAR-3 ovarian) was greater than 100 µM and the TGI (OVCAR-4 ovarian) was greater than 100 µM. For the same compound, the TGI (SK-MEL-28 melanoma) was greater than 100 µM, the TGI (SNB-75 CNS) was greater than 100 µM and the TGI (TK-10 renal) was greater than 100 µM. The TGI (UACC-257 melanoma) was greater than 100 µM.
Compound `CC(=O)Nc1ccc(S(=O)(=O)NNC(=O)c2cccnc2Nc2ccc(Cl)cc2)cc1` has a GI50 (HCT-116 colon) of 7.22 µM, a TGI (HCT-116 colon) greater than 100 µM and a GI50 (HS 578T breast) of 23.9 µM. For the same compound, the TGI (HS 578T breast) was greater than 100 µM, the GI50 (MDA-MB-231 breast) was 41.6 µM and the TGI (MDA-MB-231 breast) was greater than 100 µM. For the same compound, the GI50 (MDA-MB-435) was 3.2 µM, the TGI (MDA-MB-435) was greater than 100 µM and the GI50 (OVCAR-3 ovarian) was 3.73 µM. It also gave a TGI (OVCAR-3 ovarian) greater than 100 µM, a GI50 (OVCAR-4 ovarian) of 44.9 µM and a TGI (OVCAR-4 ovarian) greater than 100 µM. The GI50 (SK-MEL-28 melanoma) was 23.4 µM, the TGI (SK-MEL-28 melanoma) was greater than 100 µM and the GI50 (SNB-75 CNS) was 5.54 µM. The TGI (SNB-75 CNS) was greater than 100 µM, the GI50 (TK-10 renal) was 25.3 µM and the TGI (TK-10 renal) was greater than 100 µM. The GI50 (UACC-257 melanoma) was 89.4 µM and the TGI (UACC-257 melanoma) was greater than 100 µM.
For `Cc1ccc(N=Nc2c(C)c(C#N)c(=S)n(C3OC(CO)C(O)C(O)C3O)c2-c2ccccc2)cc1` (stereo not given), the TGI (HCT-116 colon) was 29 µM, the TGI (HS 578T breast) was 60.4 µM and the TGI (MDA-MB-231 breast) was greater than 100 µM. The TGI (MDA-MB-435) was 43.8 µM, the TGI (OVCAR-3 ovarian) was 41 µM and the TGI (OVCAR-4 ovarian) was greater than 100 µM. For the same compound, the TGI (SK-MEL-28 melanoma) was 43 µM, the TGI (SNB-75 CNS) was 55.2 µM and the TGI (TK-10 renal) was 67.6 µM. It also gave a TGI (UACC-257 melanoma) greater than 100 µM.
With `OCC1OC(n2cnc3c(/C=C(/O)c4ccccc4)ncnc32)C(O)C1O` (stereo not given) the TGI (HCT-116 colon) was greater than 100 µM, the TGI (HS 578T breast) was greater than 100 µM and the TGI (MDA-MB-231 breast) was greater than 30 µM. The TGI (MDA-MB-435) was greater than 100 µM, the TGI (OVCAR-3 ovarian) was greater than 100 µM and the TGI (OVCAR-4 ovarian) was greater than 88.1 µM. For the same compound, the TGI (SK-MEL-28 melanoma) was greater than 100 µM, the TGI (SNB-75 CNS) was greater than 25.1 µM and the TGI (TK-10 renal) was 13.5 µM. For the same compound, the TGI (UACC-257 melanoma) was greater than 62.9 µM.
Compound `Oc1ccccc1-c1nc2c3ccccc3c3ccccc3c2[nH]1` has a GI50 (HCT-116 colon) of 10.5 µM, a TGI (HCT-116 colon) of 22.3 µM and a GI50 (HS 578T breast) of 12.4 µM. It also gave a TGI (HS 578T breast) of 29.7 µM, a GI50 (MDA-MB-231 breast) of 1.96 µM and a TGI (MDA-MB-231 breast) of 4.44 µM. The GI50 (MDA-MB-435) was 6.23 µM, the TGI (MDA-MB-435) was 18.7 µM and the GI50 (OVCAR-3 ovarian) was 11.1 µM. For the same compound, the TGI (OVCAR-3 ovarian) was 23.1 µM, the GI50 (OVCAR-4 ovarian) was 12.7 µM and the TGI (OVCAR-4 ovarian) was 25.3 µM. The GI50 (SK-MEL-28 melanoma) was 14.4 µM, the TGI (SK-MEL-28 melanoma) was 27.4 µM and the GI50 (SNB-75 CNS) was 2.53 µM. The TGI (SNB-75 CNS) was 15.2 µM, the GI50 (TK-10 renal) was 9.26 µM and the TGI (TK-10 renal) was 20.8 µM. The GI50 (UACC-257 melanoma) was 14.1 µM and the TGI (UACC-257 melanoma) was 27.1 µM.
For `O=C1Nc2cccc3cc(NCC(O)CCl)cc1c23` (stereo not given), the TGI (HCT-116 colon) was greater than 100 µM, the TGI (HS 578T breast) was greater than 100 µM and the TGI (MDA-MB-231 breast) was greater than 100 µM. The TGI (MDA-MB-435) was greater than 100 µM, the TGI (OVCAR-3 ovarian) was greater than 100 µM and the TGI (OVCAR-4 ovarian) was greater than 100 µM. The TGI (SK-MEL-28 melanoma) was greater than 100 µM, the TGI (SNB-75 CNS) was greater than 100 µM and the TGI (TK-10 renal) was greater than 100 µM. For the same compound, the TGI (UACC-257 melanoma) was greater than 100 µM.
`CC(C)[C@H]1C(=O)N[C@@H](CCCN=C(N)N)C(=O)NCC(=O)N[C@@H](CC(=O)O)C(=O)N[C@H](Cc2ccccc2)C(=O)N1C` gave a GI50 (HCT-116 colon) of 1.86 µM, a TGI (HCT-116 colon) greater than 33.4 µM and a GI50 (HS 578T breast) of 19.8 µM. For the same compound, the TGI (HS 578T breast) was greater than 100 µM, the GI50 (MDA-MB-231 breast) was 1.83 µM and the TGI (MDA-MB-231 breast) was greater than 28.9 µM. The GI50 (MDA-MB-435) was 0.289 µM, the TGI (MDA-MB-435) was 0.895 µM and the GI50 (OVCAR-3 ovarian) was greater than 100 µM. For the same compound, the TGI (OVCAR-3 ovarian) was greater than 100 µM, the GI50 (OVCAR-4 ovarian) was greater than 100 µM and the TGI (OVCAR-4 ovarian) was greater than 100 µM. It also gave a GI50 (SK-MEL-28 melanoma) of 31.6 µM, a TGI (SK-MEL-28 melanoma) greater than 100 µM and a GI50 (SNB-75 CNS) of 0.12 µM. For the same compound, the TGI (SNB-75 CNS) was 0.279 µM, the GI50 (TK-10 renal) was 1.43 µM and the TGI (TK-10 renal) was 4.06 µM. For the same compound, the GI50 (UACC-257 melanoma) was greater than 27.9 µM and the TGI (UACC-257 melanoma) was greater than 100 µM.
`Nc1ccc(S(=O)(=O)NCc2nccs2)cc1` was tested, and the TGI (HCT-116 colon) was 40.8 µM, the TGI (HS 578T breast) was 68.4 µM and the TGI (MDA-MB-231 breast) was 68.2 µM. It also gave a TGI (MDA-MB-435) of 38.8 µM, a TGI (OVCAR-3 ovarian) greater than 100 µM and a TGI (OVCAR-4 ovarian) of 95.7 µM. For the same compound, the TGI (SK-MEL-28 melanoma) was 51.2 µM, the TGI (SNB-75 CNS) was 58.8 µM and the TGI (TK-10 renal) was 56.5 µM. For the same compound, the TGI (UACC-257 melanoma) was 44.5 µM.
